The conditions of data set [1]: mouse, in vivo, 5 mg/kg/day.
For a further data set, the system named is matrix gla protein (MGP). Nature of the data set: Clinical study: blood analysis of matrix gla protein carboxylation. It is filed as in vivo, human. To be noted: 360 ug/day, after 8 weeks of treatment, kidney transplant patients. As for the experimental part:
Participants were enrolled in a clinical trial in which the effects of vitamin K2 were determined for patients who had recently undergone a kidney transplant. At the beginning of the study, patients were subjected to a non-invasive pulse wave velocity measurement to measure arterial stiffness/flexibility, as well as blood analysis. The study participants were then instructed to receive a specific daily dose of MenaQ7 vitamin K2 menaquinone-7 (360 ug/day) for a total of 8 weeks. At the end of 8 weeks, patients were again examined with a follow-up examination, a non-invasive pulse wave velocity measurement and blood analysis and drug treatment was discontinued.
As part of the blood analysis, carboxylated matrix gla protein (MGP) was measured as a direct measure of vitamin K2 activity. The carboxylated MGP inhibits calcification of blood vessels and Vitamin K2 stimulates carboxylation of MGP.

Data set [2] relates to thrombin generation in platelet-poor mice plasma. Nature of the data set: Thrombin generation by calibrated automated thrombogram (CAT). To be noted: either dose (0.03 or 10 mg/kg b.w./day), eight weeks. The class given is in vivo. As to the method: Thrombin generation was measured in platelet-poor mice plasma using calibrated automated thrombography (CAT) technique as described in Hemker H C, Giesen P, Al Dieri R, Regnault V, de Smedt E, Wagenvoord R, et al. Calibrated automated thrombin generation measurement in clotting plasma. Pathophysiol Haemost Thromb 2003; 33:4-15. doi:71636. Thrombin generation was activated by mixing 21 μl of diluted plasma (1:1 with BSAS buffer) with 7 μIL of fluorogenic substrate (Z-Gly-Gly-Arg-AMC, 16.6 mM) and 14 μl of trigger solution containing phospholipids, tissue factor and CaCl2 (4 μM, […] and 16.6 mM, respectively). In the calibration wells, the 14 μl of reagents were replaced with calibrator (102 nM). Immediately after the activation, 5 μl of the mixture was pipetted on paper disks in a flat bottom 96-well polystyrene plate and covered with 40 μl of mineral oil. Fluorescent signals were measured using the Fluoroskan Ascent software (Thermo Labsystems, Helsinki, Finland) and transformed into thrombin concentration as described in Hemker H C, Kremers R. Data management in Thrombin Generation. Thromb Res 2013; 131:3-11. doi:10.1016/j.thromres.2012.10.011. The parameters analyzed included endogenous thrombin potential (ETP), peak thrombin concentration (peak), and lag time.

Another data set concerns ApoE/LDLR−/− mice. Nature of the data set: Histological assessment of area and composition of atherosclerotic plaque in BCA, older mice (Example 3). It is filed as in vivo. To be noted: eight weeks. An excerpt:
For the determination of atherosclerotic plaque area and composition isolated brachiocephalic artery (BCA) was dissected, fixed in 4% buffered formalin, and embedded in paraffin. 5 μm-thick serial sections of BCA were collected from the proximal to distal part of the artery. Staining with Unna's orcein combined with Martius, Scarlet and Blue trichrome (OMSB) was applied on every tenth section (50 μm interval between each section) for quantitative analysis of atherosclerotic plaques. The areas of particular components of atherosclerotic plaque as well as artery lumen and wall were determined after Columbus-based software processing (FIG. 9) using specially-designed algorithm as described in Gajda M, Jasztal A, Banasik T, Jasek-Gajda E, Chlopicki S. Combined orcein and martius scarlet blue (OMSB) staining for qualitative and quantitative analyses of atherosclerotic plaques in brachiocephalic arteries in apoE/LDLR−/− mice. Histochem Cell Biot 2017. doi:10.1007/s00418-017-1538-8. The parameters analyzed include vessel wall area (VWA), internal vessel area (IVA=plaque area+lumen area), plaque area (expressed as percent of internal wall area: plaque/IWA), and lumen area (expressed as percent of internal wall area: lumen/IWA).

Turning to `CC(C)=CCC/C(C)=C/CC/C(C)=C/CC/C(C)=C/CC/C(C)=C/CC/C(C)=C/CC/C(C)=C/CC1=C(C)C(=O)c2ccccc2C1=O` [MK-7, menaquinone-7], in data set [1], the “concentration of MK4 2,3-epoxide in plasma” value is listed as “maintained at similar level in all groups”; the “plasma concentration of MK-4” value was “dose-dependent increase”; the “vitamin K1 and K1 2,3-epoxide plasma concentration” value is “tent to decrease with increasing dose”. Further, the “mean reduction of levels of uncarboxylated MGP” value with matrix gla protein (MGP) is 55%. For the same molecule, the thrombin generation result in data set [2] is recorded as “did not affect”. Besides, the “plaque size compared with non-treated mice” value in the data set with ApoE/LDLR−/− mice (low (0.03 mg/kg b.w./day) or high dose (10 mg/kg b.w./day)) was “not different”. Further, in the data set with ApoE/LDLR−/− mice (low and high dose, 24-week-old mice), the “decrease in vessel wall area (VWA) of BCA” value is on record as “about 5%”. In addition, the “plaque and lumen area expressed as percent of IWA” value in the data set with ApoE/LDLR−/− mice (low or high dose) is given as “did not change”. The “internal wall area (IWA)” value in the data set with ApoE/LDLR−/− mice (lower dose) is “decreased only in the middle part of the vessel”.

(Values after patent publication US20220160651A1, “RAPIDLY IMPROVING ENDOTHELIAL FUNCTION, REDUCING ARTERIAL STIFFNESS AND REVERSING CALCIFICATION OF BLOOD VESSELS BY ADMINISTERING VITAMIN K” (KAYDENCE PHARMA AS, priority 2019, published 2022).)
